{
  "source": "patent US20250041461A1",
  "about": "“[177LU] LUTETIUM-PSMA I&T COMPOSITION AND DOSIMETRY, KIT, METHOD OF MAKING, AND METHOD OF USING THEREOF” (Curium US LLC, priority 2023, published 2025)",
  "origin": "cited, not measured here",
  "conditions": "cited from earlier work",
  "note": "Read-outs that look alike come from different tables or passages of the source.",
  "data": [
    {"compound": "O=C([O-])CC[C@H](NC(=O)N[C@@H](CCCCNC(=O)CCCCCCC(=O)NCCCC[C@@H](NC(=O)[C@@H](Cc1ccccc1)NC(=O)[C@@H](Cc1ccc(O)c(I)c1)NC(=O)CC[C@H](C(=O)[O-])N1CCN(CC(=O)[O-])CCN(CC(=O)[O-])CCN(CC(=O)[O-])CC1)C(=O)[O-])C(=O)[O-])C(=O)[O-].[177Lu+3].[H+].[H+].[H+].[H+].[H+]", "note": "[^177Lu-PSMA I&T, (3S,7S,26R,29R,32R,37R)-29-benzyl-32-(4-hydroxy-3-iodobenzyl)-5,13,20,28,31,34-hexaoxo-37-(4,7,10-tris(carboxymethyl)-1,4,7,10-tetraazacyclododecan-1-yl)-4,6,12,21,27,30,33-heptaazaheptatriacontane-1,3,7,26,37-pentacarboxylic acid; lutetium-177 (III)]", "values": [
      {"measurement": "Absorbed Dose, Kidneys, Mean ± SD", "setting": "First cycle (n = 15)", "value": "0.71 ± 0.25", "unit": "Gy/GBq"},
      {"measurement": "Absorbed Dose, Kidneys, Range", "setting": "First cycle (n = 15)", "value": "0.33-1.22 Gy/GBq"},
      {"measurement": "Absorbed Dose, Lacrimal glands, Mean ± SD", "setting": "First cycle (n = 15)", "value": "3.8 ± 1.5", "unit": "Gy/GBq"},
      {"measurement": "Absorbed Dose, Lacrimal glands, Range", "setting": "First cycle (n = 15)", "value": "1.68-7.03 Gy/GBq"},
      {"measurement": "Absorbed Dose, Liver, Mean ± SD", "setting": "First cycle (n = 15)", "value": "0.12 ± 0.07", "unit": "Gy/GBq"},
      {"measurement": "Absorbed Dose, Liver, Range", "setting": "First cycle (n = 15)", "value": "0.05-0.26 Gy/GBq"},
      {"measurement": "Absorbed Dose, Parotid glands, Mean ± SD", "setting": "First cycle (n = 15)", "value": 0.56, "unit": "Gy/GBq"},
      {"measurement": "Absorbed Dose, Parotid glands, Range", "setting": "First cycle (n = 15)", "value": "0.25-0.84 Gy/GBq"},
      {"measurement": "Absorbed Dose, Submandibular glands, Mean ± SD", "setting": "First cycle (n = 15)", "value": "0.54 ± 0.29", "unit": "Gy/GBq"},
      {"measurement": "Absorbed Dose, Submandibular glands, Range", "setting": "First cycle (n = 15)", "value": "0.25-1.35 Gy/GBq"},
      {"measurement": "Effective Dose, Whole body, Mean ± SD", "setting": "First cycle (n = 15)", "value": 0.05, "unit": "Sv/GBq"},
      {"measurement": "Effective Dose, Whole body, Range", "setting": "First cycle (n = 15)", "value": "0.02-0.11 Sv/GBq"},
      {"measurement": "Absorbed Dose for Tumor Lesions, Lung metastases, Mean ± SD", "setting": "First cycle, n 1", "value": 2.7, "unit": "Gy/GBq"},
      {"measurement": "Absorbed Dose for Tumor Lesions, Liver metastases, Mean ± SD", "setting": "First cycle, n 2", "value": 1.7, "unit": "Gy/GBq"},
      {"measurement": "Absorbed Dose for Tumor Lesions, Liver metastases, Range", "setting": "First cycle, n 2", "value": "0.85-2.59 Gy/GBq"},
      {"measurement": "Absorbed Dose for Tumor Lesions, Lymph node metastases, Mean ± SD", "setting": "First cycle, n 5", "value": "2.6 ± 0.89", "unit": "Gy/GBq"},
      {"measurement": "Absorbed Dose for Tumor Lesions, Lymph node metastases, Range", "setting": "First cycle, n 5", "value": "1.63-3.76 Gy/GBq"},
      {"measurement": "Absorbed Dose for Tumor Lesions, Bone metastases, Mean ± SD", "setting": "First cycle, n 33", "value": "3.8 ± 3.1", "unit": "Gy/GBq"},
      {"measurement": "Absorbed Dose for Tumor Lesions, Bone metastases, Range", "setting": "First cycle, n 33", "value": "0.22-12.03 Gy/GBq"},
      {"measurement": "Absorbed Dose for Tumor Lesions, All metastases, Mean ± SD", "setting": "First cycle, n 41", "value": "3.5 ± 2.9", "unit": "Gy/GBq"},
      {"measurement": "Absorbed Dose for Tumor Lesions, All metastases, Range", "setting": "First cycle, n 41", "value": "0.22-12.03 Gy/GBq"},
      {"measurement": "Absorbed Dose for Tumor Lesions, Liver metastases, Mean ± SD", "setting": "Fourth cycle, n 2", "value": 1.13, "unit": "Gy/GBq"},
      {"measurement": "Absorbed Dose for Tumor Lesions, Liver metastases, Range", "setting": "Fourth cycle, n 2", "value": "0.74-1.51 Gy/GBq"},
      {"measurement": "Absorbed Dose for Tumor Lesions, Bone metastases, Mean ± SD", "setting": "Fourth cycle, n 10", "value": "2.7 ± 2.3", "unit": "Gy/GBq"},
      {"measurement": "Absorbed Dose for Tumor Lesions, Bone metastases, Range", "setting": "Fourth cycle, n 10", "value": "1.04-7.60 Gy/GBq"},
      {"measurement": "Absorbed Dose for Tumor Lesions, All metastases, Mean ± SD", "setting": "Fourth cycle, n 12", "value": "2.4 ± 2.2", "unit": "Gy/GBq"},
      {"measurement": "Absorbed Dose for Tumor Lesions, All metastases, Range", "setting": "Fourth cycle, n 12", "value": "0.74-7.60 Gy/GBq"},
      {"measurement": "Absorbed Dose, Kidneys, Mean ± SD", "setting": "Fourth cycle", "value": "0.69 ± 0.18", "unit": "Gy/GBq"},
      {"measurement": "Absorbed Dose, Kidneys, Range", "setting": "Fourth cycle", "value": "0.45-0.95 Gy/GBq"},
      {"measurement": "Absorbed Dose, Lacrimal glands, Mean ± SD", "setting": "Fourth cycle", "value": "3.4 ± 1.7", "unit": "Gy/GBq"},
      {"measurement": "Absorbed Dose, Lacrimal glands, Range", "setting": "Fourth cycle", "value": "1.75-5.35 Gy/GBq"},
      {"measurement": "Absorbed Dose, Liver, Mean ± SD", "setting": "Fourth cycle", "value": "0.11 ± 0.04", "unit": "Gy/GBq"},
      {"measurement": "Absorbed Dose, Liver, Range", "setting": "Fourth cycle", "value": "0.07-0.17 Gy/GBq"},
      {"measurement": "Absorbed Dose, Parotid glands, Mean ± SD", "setting": "Fourth cycle", "value": 0.50, "unit": "Gy/GBq"},
      {"measurement": "Absorbed Dose, Parotid glands, Range", "setting": "Fourth cycle", "value": "0.32-0.58 Gy/GBq"},
      {"measurement": "Absorbed Dose, Submandibular glands, Mean ± SD", "setting": "Fourth cycle", "value": "0.66 ± 0.53", "unit": "Gy/GBq"},
      {"measurement": "Absorbed Dose, Submandibular glands, Range", "setting": "Fourth cycle", "value": "0.24-1.58 Gy/GBq"},
      {"measurement": "Effective Dose, Whole body, Mean ± SD", "setting": "Fourth cycle", "value": 0.05, "unit": "Sv/GBq"},
      {"measurement": "Effective Dose, Whole body, Range", "setting": "Fourth cycle", "value": "0.03-0.11 Sv/GBq"},
      {"measurement": "Absorbed Dose, Kidneys, Mean ± SD", "setting": "Overall (n = 34)", "value": "0.72 ± 0.21", "unit": "Gy/GBq"},
      {"measurement": "Absorbed Dose, Kidneys, Range", "setting": "Overall (n = 34)", "value": "0.33-1.22 Gy/GBq"},
      {"measurement": "Absorbed Dose, Lacrimal glands, Mean ± SD", "setting": "Overall (n = 34)", "value": "3.8 ± 1.4", "unit": "Gy/GBq"},
      {"measurement": "Absorbed Dose, Lacrimal glands, Range", "setting": "Overall (n = 34)", "value": "1.68-7.03 Gy/GBq"},
      {"measurement": "Absorbed Dose, Liver, Mean ± SD", "setting": "Overall (n = 34)", "value": "0.12 ± 0.06", "unit": "Gy/GBq"},
      {"measurement": "Absorbed Dose, Liver, Range", "setting": "Overall (n = 34)", "value": "0.05-0.26 Gy/GBq"},
      {"measurement": "Absorbed Dose, Parotid glands, Mean ± SD", "setting": "Overall (n = 34)", "value": 0.55, "unit": "Gy/GBq"},
      {"measurement": "Absorbed Dose, Parotid glands, Range", "setting": "Overall (n = 34)", "value": "0.25-0.84 Gy/GBq"},
      {"measurement": "Absorbed Dose, Submandibular glands, Mean ± SD", "setting": "Overall (n = 34)", "value": "0.64 ± 0.40", "unit": "Gy/GBq"},
      {"measurement": "Absorbed Dose, Submandibular glands, Range", "setting": "Overall (n = 34)", "value": "0.24-1.70 Gy/GBq"},
      {"measurement": "Effective Dose, Whole body, Mean ± SD", "setting": "Overall (n = 34)", "value": 0.06, "unit": "Sv/GBq"},
      {"measurement": "Effective Dose, Whole body, Range", "setting": "Overall (n = 34)", "value": "0.02-0.11 Sv/GBq"},
      {"measurement": "Absorbed Dose for Tumor Lesions, Lung metastases, Mean ± SD", "setting": "Overall, n 3", "value": "1.75 ± 0.92", "unit": "Gy/GBq"},
      {"measurement": "Absorbed Dose for Tumor Lesions, Lung metastases, Range", "setting": "Overall, n 3", "value": "0.94-2.68 Gy/GBq"},
      {"measurement": "Absorbed Dose for Tumor Lesions, Liver metastases, Mean ± SD", "setting": "Overall, n 8", "value": "1.2 ± 0.67", "unit": "Gy/GBq"},
      {"measurement": "Absorbed Dose for Tumor Lesions, Liver metastases, Range", "setting": "Overall, n 8", "value": "0.47-2.59 Gy/GBq"}
    ]}
  ]
}
